The source of these data is PubChem BioAssay (NCI).

SMILES strings stand for the structures.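 All cell lines were grown in 96-well plates and treated with compound for 48 hours. Here, GI50 denotes the concentration required for 50% inhibition of growth. TGI is the concentration that stops growth completely.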

Assay in all cases: NCI tumour cell line growth inhibition, 48 h
In assay [1] the test system is SK-OV-3 ovarian.
Assay [2] relates to SNB-19 CNS.
Assay [3] relates to SR leukemia.
For assay [4], the system named is 786-0 renal.
In assay [5] the test system is HOP-62 NSCLC.
Assay [6] deals with MCF7 breast.
Assay [7] deals with BT-549 breast.
The test system of assay [8] is EKVX NSCLC.
For assay [9], the system named is HCT-15 colon.
Assay [10] deals with SF-295 CNS.

As to `COc1ccc2c(c1)C(=O)c1c-2n(CCCCl)c(=O)c2cc(N)ccc12`, the GI50 in [1] was above 100 µM; in assay [2], above 100 µM; in [3], above 62.8 µM; in assay [4] it was above 63.7 µM; in assay [5], above 100 µM; in assay [6], 34.8 µM. The GI50 in assay [7] was above 100 µM; in assay [8] it was above 100 µM; in [9] it was above 95.7 µM; in assay [10], above 64.6 µM. In addition, the TGI in assay [1], in assay [2], in assay [3], in [4], in [5] and in [6] was above 100 µM in each case. Moreover, the TGI in assay [7], in assay [8], in [9] and in [10] was above 100 µM throughout.

With `O=C(c1ccc(Nc2nccc(NCCCCNc3ccnc4cc(Cl)ccc34)n2)cc1)N1CCCCC1`, the GI50 in [1] is 5.45 µM; in assay [2], 3.89 µM; in assay [3] it was 0.219 µM; in assay [4], 1.46 µM; in [5], 2.24 µM; in [6], 1.83 µM. Further, the GI50 is 1.75 µM in [7], 3.86 µM in assay [8], 1.69 µM in assay [9] and 1.54 µM in [10]. Moreover, the TGI in assay [1] was 18 µM; in assay [2] it was 21.1 µM; in [3], 1.5 µM; in assay [4], 2.82 µM; in assay [5] it was 6.02 µM; in [6], 7.64 µM. Also, the TGI in assay [7] came to 3.42 µM; in assay [8], 19.8 µM; in assay [9], 6.43 µM; in [10], 3.33 µM.

Turning to `O=c1[nH]c2ccccc2n1C1CCN(CCOc2ccccc2)CC1`, the GI50 in [1] is 42.9 µM; in assay [2], 47.8 µM; in assay [3], 44 µM; in assay [4], 43.9 µM; in [5], 50.3 µM; in assay [6], 26.3 µM. The GI50 in assay [7] is 34.2 µM; in assay [8], 7.05 µM; in assay [9], 20.6 µM; in assay [10], 2.87 µM. Further, the TGI in assay [1], in [2], in [3], in [4], in [5] and in assay [6] was above 100 µM each time. Also, the TGI in assay [7] is above 100 µM; in assay [8], 58.4 µM; in assay [9] it was above 100 µM; in assay [10], 19.2 µM.

Consider `C(=C\c1ccc(OCC2CO2)cc1)/C1=NCOC1` (centres undefined), for which the GI50 was 8.92 µM in assay [1]; 4.73 µM in assay [2]; 3.05 µM in assay [3]; 17.6 µM in [4]; 26 µM in assay [5]; 4.65 µM in [6]. Besides, the GI50 was 12.4 µM in assay [7], 19.1 µM in assay [8], 5.89 µM in assay [9] and 28.3 µM in assay [10]. The TGI in assay [1] worked out at 25.5 µM; in [2], 29.2 µM; in assay [3], 11.9 µM; in assay [4], 53.4 µM; in assay [5], 65.3 µM; in assay [6] it was 46 µM. The TGI was found to be 27.2 µM in assay [7], 58.4 µM in assay [8], 21.3 µM in [9] and 84.6 µM in assay [10].

For `COc1ccc2nc3ccccc3c(NCc3ccccc3)c2c1`, the GI50 in [1] is 2.45 µM; in [2], 3.41 µM; in assay [3] it was 1.38 µM; in assay [4], 1.8 µM; in assay [5], 2.62 µM; in assay [6], 2.01 µM. In addition, the GI50 was 2.16 µM in assay [7], 3.03 µM in [8], 1.83 µM in assay [9] and 2.13 µM in [10]. For the same molecule, the TGI in assay [1] is 9.08 µM; in assay [2], 13.7 µM; in assay [3], 4.51 µM; in assay [4], 3.38 µM; in assay [5] it was 9.95 µM; in assay [6] it was 4.89 µM. Also, the TGI was found to be 5.18 µM in assay [7], 11.4 µM in assay [8], 4.46 µM in [9] and 5.86 µM in assay [10].

Regarding `OCC1OC(n2cnc3c(NCc4ccco4)ncnc32)C(O)C1O` (centres undefined), the GI50 in assay [1] was 1.6 µM; in [2], 3.99 µM; in [3] it was 1.56 µM; in assay [4], 2.16 µM; in [5] it was 3.79 µM; in [6] it was 0.72 µM. Also, the GI50 was 0.421 µM in assay [7], 4.73 µM in [8], 0.524 µM in [9] and 1.21 µM in assay [10]. Further, the TGI is 14.2 µM in assay [1]; above 100 µM in assay [2]; 6.92 µM in assay [3]; 10.3 µM in assay [4]; above 48.9 µM in [5]; above 25.5 µM in assay [6]. Further, the TGI in assay [7] is 2.64 µM; in assay [8], 81.7 µM; in assay [9] it was above 28.1 µM; in assay [10], 8.3 µM.

With `Cc1nn(-c2ccccc2)c2nc(C)n(-c3ccc(Br)cc3)c(=O)c12`, the GI50 in assay [1] is 1.28 µM; in assay [2], 0.547 µM; in assay [3], 0.439 µM; in [4] it was 0.542 µM; in [5], 0.678 µM; in assay [6] it was 0.356 µM. Also, the GI50 in assay [7] is 0.688 µM; in assay [8], 0.822 µM; in [9], 0.416 µM; in assay [10] it was 0.357 µM. The TGI in assay [1], in [2], in [3], in assay [4], in assay [5] and in assay [6] was above 100 µM in each case. Also, the values for the TGI in assay [7], in assay [8] and in assay [9] were 67.3 µM, above 100 µM and above 100 µM, respectively.
